A word on the IC50: it is the concentration at which inhibition is half-maximal.

In brackets after ≈: the same amount, converted by molar mass.

The subject of series [1] is L. donovani axenic amastigotes. Kind of series: L. donovani axenic amastigote proliferation, colorimetric assay. In kind it is cell-based, Leishmania donovani. The following applies: for activity in the axenic amastigote L. donovani assay (in words): screening / confirmation; for IC50: Leishmania donovani, L. donovani axenic amastigotes. As for the experimental part:
As part of an ongoing search for potential treatments for leishmaniasis, a screening campaign against available compounds was conducted using axenic amastigotes of Leishmania donovani, a protozoan that is known to cause visceral leishmaniasis (VL). […] Prior to taking on the development of novel analogs, we sought to synthesize an analog to confirm that the activity was readily reproducible. […] As a byproduct, compound 2a, which arose from the hydrolysis of the product amide to the corresponding carboxylic acid (not shown) was also isolated and evaluated (vide infra).
(§1) With a source of these compounds in hand, their activity against Leishmania donovani cells was evaluated in two different assays. L. donovani axenic amastigotes were generated from promastigotes and maintained in an appropriate medium such that their proliferation could be evaluated using a colorimetric assay. Additionally, macrophages were plated into a 96-well plate and a medium containing L. donovani was added and allowed to infect the macrophage cells. Subsequent addition of the compound to be evaluated was added to the wells prior to incubation and evaluation. Finally, a counterscreen for cytotoxicity was conducted using a J774 murine mouse cell line.

Series [2] concerns L. donovani infected macrophage cells. Description: L. donovani infected macrophage assay. Conditions: Leishmania donovani, macrophages infected with L. donovani. It counts as cell-based. As for the experimental part: as §1
Series [3] is described as follows: Counterscreen for cytotoxicity. It counts as cell-based. Conditions: mouse, J774 cells (murine macrophage cell line). As for the experimental part:
as §1
On the technique in general: A counterscreen serves to expose hits that act by an unwanted route or on another target.

On to `Cc1nn(-c2ccc(C(N)=O)c(N[C@H]3CC[C@H](O)CC3)c2)c2c1C(=O)CC(C)(C)C2` [Compound 1, reference compound], for which the “activity in the axenic amastigote L. donovani assay (in words)” value in series [1] was “most active”.
Take `COCCCNc1cc(-n2nc(C)c3c2CC(C)(C)CC3=O)ccc1C(N)=O` [Compound 2]: the values for the concentration for half-maximal inhibition (IC50) in series [2], in series [1] and in series [3] were 0.879 µg/mL (≈ 2.29 µM), 0.646 µg/mL (≈ 1.68 µM) and 3.52 µg/mL (≈ 9.16 µM), respectively. For the same compound, the “activity in the axenic amastigote L. donovani assay (in words)” value in series [1] was “equally active as 1”.
For `COCCCNc1cc(-n2nc(C)c3c2CN(Cc2ccccc2)CC3=O)ccc1C(N)=O` [Compound 3a], the IC50 in series [2] was 6.33 µg/mL (≈ 14.1 µM); in series [1] it was 2.29 µg/mL (≈ 5.11 µM); in series [3], more than 50 µg/mL.
As for `COCCCNc1cc(-n2nc(C)c3c2CNCC3=O)ccc1C(N)=O` [Compound 3b], the values for the IC50 in series [2], in series [1] and in series [3] were more than 10 µg/mL, 3.9 µg/mL (≈ 10.9 µM) and more than 50 µg/mL, respectively.
Turning to `COCCCNc1cc(-n2nc(C)c3c2CN(C(C)=O)CC3=O)ccc1C(N)=O` [Compound 3c], the figures for the IC50 in series [2], in series [1] and in series [3] were 1.06 µg/mL (≈ 2.65 µM), 13.9 µg/mL (≈ 34.8 µM) and more than 50 µg/mL, respectively.
For `CCC(=O)N1CC(=O)c2c(C)nn(-c3ccc(C(N)=O)c(NCCCOC)c3)c2C1` [Compound 3d], the IC50 was 3.54 µg/mL (≈ 8.55 µM) in series [2], 6.42 µg/mL (≈ 15.5 µM) in series [1] and more than 50 µg/mL in series [3].
For `COCCCNc1cc(-n2nc(C)c3c2CN(C(=O)C(C)C)CC3=O)ccc1C(N)=O` [Compound 3e], the IC50 in series [2] came out at 3.54 µg/mL (≈ 8.28 µM); in series [1], 1.9 µg/mL (≈ 4.45 µM); in series [3] it was 37.3 µg/mL (≈ 87.3 µM).
On to `COCCCNc1cc(-n2nc(C)c3c2CN(C(=O)COC)CC3=O)ccc1C(N)=O` [Compound 3f], for which the results for the IC50 in series [2], in series [1] and in series [3] were 3.57 µg/mL (≈ 8.31 µM), 4.45 µg/mL (≈ 10.4 µM) and more than 50 µg/mL, respectively.
As for `COCCCNc1cc(-n2nc(C)c3c2CN(C(=O)C2CCCC2)CC3=O)ccc1C(N)=O` [Compound 3g], the 50% inhibitory concentration (IC50) in series [2] is 1.52 µg/mL (≈ 3.36 µM); in series [1], 2.99 µg/mL (≈ 6.59 µM); in series [3] it was more than 50 µg/mL.
On the same counts, the results for `COCCCNc1cc(-n2nc(C)c3c2CN(C(=O)c2ccc(C)cc2)CC3=O)ccc1C(N)=O` [Compound 3h] are 1.75 µg/mL (≈ 3.69 µM), 2.6 µg/mL (≈ 5.48 µM) and 26.3 µg/mL (≈ 55.3 µM).
Take `COCCCNc1cc(-n2nc(C)c3c2CN(S(C)(=O)=O)CC3=O)ccc1C(N)=O` [Compound 3i]: the results for the IC50 in series [2], in series [1] and in series [3] were more than 5.38 µg/mL, more than 20 µg/mL and 25.5 µg/mL (≈ 58.6 µM), respectively.
On the same counts, the results for `COCCCNc1cc(-n2nc(C)c3c2CN(C(=O)NCc2ccccc2)CC3=O)ccc1C(N)=O` [Compound 3j] are more than 10 µg/mL, more than 20 µg/mL and more than 50 µg/mL.
On to `COCCCNc1cc(-n2nc(C)c3c2CN(C(N)=O)CC3=O)ccc1C(N)=O` [Compound 3k], for which the IC50 in series [2] is more than 10 µg/mL; in series [1], more than 20 µg/mL; in series [3] it was more than 50 µg/mL.
Regarding `COCCCNc1cc(NC2CC(C)(C)Cc3ncccc32)ccc1C(N)=O` (centres unmarked) [Compound 6], the IC50 in series [2] turned out to be 5.38 µg/mL (≈ 14.1 µM); in series [1] it was 2.55 µg/mL (≈ 6.67 µM); in series [3] it was 6.75 µg/mL (≈ 17.6 µM).
Turning to `Cc1nn(-c2ccc3c(N)ncnc3c2)c2c1C(=O)CC(C)(C)C2` [Compound 9c], the IC50 in series [2] was 1.33 µg/mL (≈ 4.15 µM); in series [1] it was 2.42 µg/mL (≈ 7.53 µM); in series [3] it was more than 50 µg/mL.
Turning to `COCCCNc1cc(-n2nc(C)c3c2CCCC3=O)ccc1C(N)=O` [Compound 10], the IC50 in series [2] worked out at 0.65 µg/mL (≈ 1.82 µM); in series [1], 2.65 µg/mL (≈ 7.45 µM); in series [3], 12.6 µg/mL (≈ 35.2 µM).
